Experiments:
[1] = Menstrual cycle trend (frequency of the period); format: in vivo; conditions: before the treatment, same group of women with PCOS
Excerpt: (§1) The women were divided into 3 groups, each group received the treatment according to the following scheme: • Group A: 20 women treated with 1.5 g of myo-inositol + 2 g of glucomannan, twicea day for 3 months, administered half an hour before meals; • Group B: 10 women treated with 1.5 g myo-inositol, twice a day for 3 months, administered half an hour before meals; • Group C: 10 women treated with a dose of 2 g of glucomannan, twice a day for 3 months, adminisered with main meals.
(§2) In addition to the assessment of blood glucose and insulin levels during OGTT, the menstrual cycle trend has been evaluated in all the women: the 3rd month of treatment at the 22nd day of the menstrual cycle a progesterone dosage was performed and, after 3 months of treatment, an evaluation of acne, hirsutism and body mass index was performed.

[2] = OGTT (oral glucose tolerance test): insulin levels; format: in vivo; parameters: unit not given beside the values; conditions: OGTT 75 g, women with PCOS, treatment twice a day for 3 months
Method: (§3) In order to evaluate the effectiveness of this new combination of inositol and glucomannan on blood glucose levels and insulin at baseline and after glucose load curve, it was evaluated the effect in 20 women affected by insulin resistance PCOS and compared with what determined in 2 groups of 10 women each, treated with myo-inositol and glucomannan individually administered.
as §1
(§4) In order to determine blood glucose and insulin levels in all samples, OGTT (oral glucose tolerance test) was performed in all women in the early follicular phase of the spontaneous period, or after a progestin-induced, period before starting the treatment and after three months of treatment ([…]) .

[3] = Body mass index evaluation; format: in vivo, women
Excerpt: as §1, §2

[4] = Plasma progesterone at the 22nd day of the period; format: in vivo, women
Excerpt: as §1, §2

[5] = OGTT (oral glucose tolerance test): blood glucose levels; format: in vivo; conditions: OGTT 75 g, women with PCOS, treatment twice a day for 3 months
Method: as §3, §1, §4

[6] = before treatment, same group of women with PCOS

O[C@H]1[C@H](O)[C@@H](O)[C@H](O)[C@@H](O)[C@H]1O [myo-inositol]
frequency of the period [1]: 38 to 42 days | insulin levels ([2]; time 0): 7.6+1. | insulin levels ([2]; time 60'): 57.5±7.13 | insulin levels ([2]; time 90'): 48.4±4.81 | insulin levels ([2]; time 120'): 40.7±5.57 | insulin levels ([2]; time 180'): 34±4.89 | body mass index ([3]; at the 3rd month of treatment): 25 ± 1.3 | body mass index [3, 6]: 27 ± 0.6 | plasma progesterone ([4]; 22nd day of the period during the 3rd month of treatment): 4.2 ± 0.6 ng/mL | plasma progesterone [4, 6]: 2.2 ± 0.2 ng/mL | blood glucose levels ([5]; time 0): 90±4.71 | blood glucose levels ([5]; time 30'): 130.8±6.56 | blood glucose levels ([5]; time 90'): 107.2±10.25 | blood glucose levels ([5]; time 120'): 98±6.92 | blood glucose levels ([5]; time 180'): 91.1±6.15
